In ChEMBL document CHEMBL1201862, “PubChem BioAssay data set” (2004):
“And” between values parts separate entries of the source, which are not always exact repeats. Equal values may be shown once. The source made the active and inactive calls.

Assays:
[1] = target: Glutathione-S-transferase (Schistosoma japonicum, UniProt Q26513); assay: biotin-GST/anti-GST TR-FRET signal inhibitors, dose response, artefact control for Vif-APOBEC3G degradation inhibitor project, biochemical (AID 1117362); assay type: functional
Sequence of Glutathione-S-transferase (Q26513 whole entry): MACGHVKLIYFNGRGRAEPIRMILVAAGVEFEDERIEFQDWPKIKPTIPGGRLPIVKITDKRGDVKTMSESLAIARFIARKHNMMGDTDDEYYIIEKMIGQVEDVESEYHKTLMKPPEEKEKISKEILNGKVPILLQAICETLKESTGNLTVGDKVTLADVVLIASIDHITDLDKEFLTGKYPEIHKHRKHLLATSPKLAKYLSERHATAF

[2] = THP-1 cell cytotoxicity, dose response, cytotoxicity control for Vif-APOBEC3G degradation inhibitor project, THP-1 cells (AID 1117359); assay type: functional; conditions: Human immunodeficiency virus 1, THP-1
[3] = target: T1, Low molecular weight phosphotyrosine protein phosphatase (Homo sapiens, UniProt P24666); assay: LMPTP phosphatase inhibitors, dose response, biochemical, OMFP substrate, fluorescence intensity, set 2 (AID 743307); assay type: functional
T1 sequence (P24666 whole entry): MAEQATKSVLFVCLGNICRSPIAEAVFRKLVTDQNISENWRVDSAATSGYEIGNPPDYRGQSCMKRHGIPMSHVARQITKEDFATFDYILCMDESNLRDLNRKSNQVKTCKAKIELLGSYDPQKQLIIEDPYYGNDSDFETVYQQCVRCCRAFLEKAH

[4] = target: T1, Low molecular weight phosphotyrosine protein phosphatase; assay: LMPTP phosphatase inhibitors, colorimetric pNPP readout, dose response, orthogonal assay, biochemical, absorbance, pNPP substrate, LMPTP-A isoform, set 2 (AID 743308); assay type: functional
[5] = RKO cell viability reduction, dose response, CellTiter-Glo luminescence (AID 1117322); assay type: functional
[6] = cytotoxicity toward Colo320 cells – cell-based, CellTiter-Glo luminescence, IC50, dose response (AID 1117334); assay type: functional; conditions: COLO 320
[7] = CellTiter-Glo luminescent dose response of DLD-1 viability loss (AID 1117352); assay type: functional
[8] = cytotoxicity toward HT-29 cells – cell-based, CellTiter-Glo luminescence, IC50, dose response (AID 1117330); assay type: functional
[9] = HCT116 cell viability decrease, GSK3B pretreatment – CellTiter-Glo, IC50, dose response (AID 1117339); assay type: functional; conditions: HCT-116
[10] = SNU-C1 cell viability reduction, dose response, CellTiter-Glo luminescence (AID 1117323); assay type: functional, cell-based
[11] = cytotoxicity toward HCT116 cells – cell-based, CellTiter-Glo luminescence, IC50, dose response (AID 1117332); assay type: functional; conditions: HCT-116
[12] = Concentration-dependent survival of SW480 colon cancer line, luminescence detection with CellTiter-Glo, half-maximal inhibitory concentration (AID 1117338); assay type: functional
[13] = inhibitors of non-replicating M. tuberculosis, dose response, luciferase, dry powder (AID 651619); assay type: functional; conditions: Mycobacterium tuberculosis
[14] = inhibitors of non-replicating M. tuberculosis, dose response, luciferase, dry powder (AID 651620); assay type: functional; conditions: Mycobacterium tuberculosis
[15] = system: INS1; assay: beta cell apoptosis inhibitors, cytokine rescue, dose response, luminescence, retest (AID 449756); assay type: functional, cell-based; conditions: Rattus norvegicus, INS1;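 note: cell death triggered by IL-1 beta plus TNF-alpha plus IFN-gamma mixture; protective hits raise ATP signal compared with cytokine alone wells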
[16] = control 3'UTR Renilla luciferase suppression, dose response, counter-screen for Shn3 inhibitor project, cell-based, Clone20-Shn3RL, cherry-picked (AID 624133); assay type: functional
[17] = C. albicans growth with fluconazole, confirmation, fluorescence, retest (AID 2467); assay type: functional, cell-based
[18] = target: ATP-dependent molecular chaperone HSP82 (Candida albicans (strain WO-1) (Yeast), UniProt C4YTQ8); assay: loss of DOC-induced GRE-beta-galactosidase reporter signal, dose response, Hsp90 inhibitor project, S. cerevisiae, luminescence (AID 2400); assay type: functional, cell-based;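 note: beta-galactosidase luminescence from glucocorticoid response element reporter as proxy for Hsp90 function; inhibitor potency where signal loss means Hsp90 inhibition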
Sequence of ATP-dependent molecular chaperone HSP82 (C4YTQ8 whole entry): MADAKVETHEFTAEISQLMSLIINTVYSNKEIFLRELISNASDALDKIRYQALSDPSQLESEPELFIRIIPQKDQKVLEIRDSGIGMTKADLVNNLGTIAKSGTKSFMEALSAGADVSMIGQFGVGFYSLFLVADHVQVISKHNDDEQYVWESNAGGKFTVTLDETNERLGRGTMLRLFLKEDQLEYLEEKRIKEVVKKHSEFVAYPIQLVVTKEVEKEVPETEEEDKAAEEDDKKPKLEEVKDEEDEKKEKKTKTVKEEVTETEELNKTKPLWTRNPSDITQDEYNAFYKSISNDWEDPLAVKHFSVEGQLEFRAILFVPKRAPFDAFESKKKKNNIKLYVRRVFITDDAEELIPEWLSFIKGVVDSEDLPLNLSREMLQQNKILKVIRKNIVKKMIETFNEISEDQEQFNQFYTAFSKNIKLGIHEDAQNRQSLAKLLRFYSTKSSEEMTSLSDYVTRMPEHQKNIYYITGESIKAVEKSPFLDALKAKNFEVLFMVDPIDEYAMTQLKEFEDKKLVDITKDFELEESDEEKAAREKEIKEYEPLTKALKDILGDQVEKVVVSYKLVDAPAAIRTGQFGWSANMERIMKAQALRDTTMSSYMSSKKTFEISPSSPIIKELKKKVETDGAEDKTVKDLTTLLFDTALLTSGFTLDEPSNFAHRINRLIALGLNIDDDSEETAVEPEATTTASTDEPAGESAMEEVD

[19] = cytotoxicity in HEK-293T cells, dose response, cytotoxicity control for TCR NF-kB inhibitor project, luminescence, T-cell screen hits (AID 489026); assay type: functional, cell-based;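 note: cells exposed to compound about 14 hours before the viability readout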
[20] = target: COUP transcription factor 2 (Homo sapiens, UniProt P24468); assay: Luminescence-based cell-based high throughput dose response assay to identify inhibitors of COUP-TFII (NR2F2).; assay type: functional;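 note: HEK293 cells transiently cotransfected with COUP-TFII expression vector and reporter; luciferase reporter luminescence driven by COUP-TFII from the pX2-168 reporter plasmid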
Sequence of COUP transcription factor 2 (P24468 whole entry): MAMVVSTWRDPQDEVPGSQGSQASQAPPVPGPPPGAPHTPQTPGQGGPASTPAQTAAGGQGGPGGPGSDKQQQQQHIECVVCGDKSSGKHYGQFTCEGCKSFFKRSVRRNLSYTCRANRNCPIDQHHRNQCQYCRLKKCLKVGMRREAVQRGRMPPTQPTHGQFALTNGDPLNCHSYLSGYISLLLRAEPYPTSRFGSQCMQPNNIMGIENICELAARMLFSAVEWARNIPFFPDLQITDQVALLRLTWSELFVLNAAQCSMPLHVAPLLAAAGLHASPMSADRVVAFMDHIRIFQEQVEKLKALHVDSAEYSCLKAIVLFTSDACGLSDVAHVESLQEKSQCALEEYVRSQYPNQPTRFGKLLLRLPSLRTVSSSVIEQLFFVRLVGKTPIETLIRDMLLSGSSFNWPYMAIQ

[21] = target: Galanin receptor type 3 (Homo sapiens, UniProt O60755); assay: Fluorescence-based cell-based primary high throughput dose response assay to identify antagonists of the Galanin Receptor 3 (GalR3).; assay type: functional
Sequence of Galanin receptor type 3 (O60755 whole entry): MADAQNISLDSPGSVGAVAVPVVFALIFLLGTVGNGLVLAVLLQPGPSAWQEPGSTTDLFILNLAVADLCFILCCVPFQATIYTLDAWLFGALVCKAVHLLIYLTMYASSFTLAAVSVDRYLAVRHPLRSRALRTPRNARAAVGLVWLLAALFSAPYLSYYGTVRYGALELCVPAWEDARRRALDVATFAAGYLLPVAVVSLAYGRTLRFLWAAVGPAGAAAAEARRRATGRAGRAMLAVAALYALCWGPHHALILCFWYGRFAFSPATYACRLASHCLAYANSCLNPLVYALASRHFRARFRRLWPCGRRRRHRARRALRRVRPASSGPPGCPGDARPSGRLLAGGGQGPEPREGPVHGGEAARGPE

[22] = NIH-3T3 fibroblast cytotoxicity, dose response, cytotoxicity control, cell-based, fluorescence, Alamar Blue, secondary assay (AID 2327); assay type: functional;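 note: NIH-3T3 mouse fibroblasts cultured with fluconazole at 8 µg/mL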
[23] = cells; assay type: functional, cell-based; conditions: HEK-CNG
[24] = Shn3 3'UTR reporter inhibitors, dose response, cell-based, Clone20 osteoblasts, firefly luciferase, cherry-picked (AID 624132); assay type: functional;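 note: firefly luciferase luminescence from reporter carrying the Shn3 3'UTR in osteoblasts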
[25] = HepG2 cell cytotoxicity, dose response, cytotoxicity control for Shn3 inhibitor project, CellTiter-Glo, cherry-picked (AID 624134); assay type: functional, cell-based
[26] = target: T2, Serine/threonine-protein phosphatase (Candida dubliniensis (strain CD36 / CBS 7987 / NCPF 3949 / NRRLY-17841) (Yeast), UniProt B9W6M3); assay: calcineurin pathway inhibitors in yeast reporter, dose response, S. cerevisiae, CDRE-lacZ, luminescence, secondary (AID 2388); assay type: functional, cell-based;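 note: yeast reporter cells carrying a calcineurin-responsive lacZ construct stimulated with calcium chloride; luminescent beta-galactosidase reporter signal in whole cells rather than isolated phosphatase activity; potency for inhibition where a drop in reporter signal means calcineurin blockade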
T2 sequence (B9W6M3 whole entry): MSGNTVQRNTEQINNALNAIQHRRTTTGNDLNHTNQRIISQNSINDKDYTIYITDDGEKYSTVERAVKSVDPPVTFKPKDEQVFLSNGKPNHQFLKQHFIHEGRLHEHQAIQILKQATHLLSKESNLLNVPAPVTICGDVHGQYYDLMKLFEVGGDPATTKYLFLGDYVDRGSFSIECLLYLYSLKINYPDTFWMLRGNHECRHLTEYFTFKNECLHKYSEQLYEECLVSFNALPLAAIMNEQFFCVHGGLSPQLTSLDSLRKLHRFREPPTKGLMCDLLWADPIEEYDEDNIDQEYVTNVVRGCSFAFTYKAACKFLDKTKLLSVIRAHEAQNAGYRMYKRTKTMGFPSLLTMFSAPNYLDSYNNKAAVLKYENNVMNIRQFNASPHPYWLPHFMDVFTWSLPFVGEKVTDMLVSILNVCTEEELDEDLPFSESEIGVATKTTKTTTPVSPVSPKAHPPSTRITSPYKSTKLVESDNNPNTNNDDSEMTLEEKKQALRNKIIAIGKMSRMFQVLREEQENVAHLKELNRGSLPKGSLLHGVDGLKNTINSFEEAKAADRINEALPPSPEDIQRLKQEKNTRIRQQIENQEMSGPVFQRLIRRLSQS

[27] = P. falciparum late gametocyte killing, dose response, luminescence (AID 1117278); assay type: functional, cell-based;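 note: gametocytes exposed to compound for 24 hours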
[28] = Jurkat T cell cytotoxicity, dose response, cytotoxicity control for P. falciparum gametocyte viability project, luminescence (AID 1117277); assay type: functional, cell-based;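 note: potency reflects loss of cellular ATP meaning fewer viable cells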
[29] = target: C-X-C chemokine receptor type 4 (Homo sapiens, UniProt P61073); assay: SAR analysis of small molecule antagonists of the CXCR6 receptor using a CXCR4 receptor luminescent beta-arrestin counterscreen.; assay type: functional
Sequence of C-X-C chemokine receptor type 4 (P61073 whole entry): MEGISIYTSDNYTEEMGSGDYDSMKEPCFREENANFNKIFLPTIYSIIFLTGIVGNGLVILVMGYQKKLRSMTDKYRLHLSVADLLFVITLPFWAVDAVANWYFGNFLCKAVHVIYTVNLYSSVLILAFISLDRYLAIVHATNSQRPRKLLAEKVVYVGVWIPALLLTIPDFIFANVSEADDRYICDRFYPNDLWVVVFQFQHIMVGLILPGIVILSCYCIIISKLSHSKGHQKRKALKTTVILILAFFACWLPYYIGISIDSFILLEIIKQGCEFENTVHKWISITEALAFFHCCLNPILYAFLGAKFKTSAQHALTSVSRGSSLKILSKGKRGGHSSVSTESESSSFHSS

[30] = target: C-C chemokine receptor type 6 (Homo sapiens, UniProt P51684); assay: SAR analysis of small molecule antagonists of the CXCR6 receptor using a CCR6 receptor luminescent beta-arrestin counterscreen.; assay type: functional
Sequence of C-C chemokine receptor type 6 (P51684 whole entry): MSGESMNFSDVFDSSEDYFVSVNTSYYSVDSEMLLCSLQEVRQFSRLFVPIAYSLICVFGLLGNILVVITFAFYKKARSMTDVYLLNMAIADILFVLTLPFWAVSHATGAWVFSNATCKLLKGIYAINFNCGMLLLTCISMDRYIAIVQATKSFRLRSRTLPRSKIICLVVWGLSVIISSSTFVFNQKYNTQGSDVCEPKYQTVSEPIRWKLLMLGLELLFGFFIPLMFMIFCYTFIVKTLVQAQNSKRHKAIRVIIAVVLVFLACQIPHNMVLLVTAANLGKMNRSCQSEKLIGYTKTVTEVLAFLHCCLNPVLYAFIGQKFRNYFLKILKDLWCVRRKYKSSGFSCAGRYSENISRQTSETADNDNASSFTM

[31] = HepG2 cell cytotoxicity, dose response, cytotoxicity control, ATP luminescence, cherry-pick, set 6 (AID 1053125); assay type: functional, cell-based
[32] = cells; conditions: HEK293

O=C(COC(=O)c1ccccc1OC(F)F)Nc1ccc2[nH]c(O)nc2c1
active: IC50 [1] > 100 µM | CC50 [2] > 40 µM

c1ccc(-c2cc(NCCN3CCOCC3)c3ccccc3n2)cc1
active: IC50 [3] 2.13 µM | IC50 [4] 3.28 µM

O=C(OCCO)c1ccccc1O
inactive: IC50 [5] > 20 µM | IC50 [6] > 20 µM | IC50 [7] > 20 µM | IC50 [8] > 20 µM | IC50 [9] > 20 µM | IC50 [10] > 20 µM | IC50 [11] > 20 µM | IC50 [12] > 20 µM

[N-]=[N+]=NCCOCCNC(=O)CCCOc1ccc(C[S+]([O-])c2nnc(-c3ccc(Cl)cc3)o2)nc1 (configuration not stated)
active: IC90 [13] 8 µM | IC90 [14] 8 µM

CC(Nc1ncnc2ccccc12)c1ccccc1 (configuration not stated)
active: AC50 [15] 1.98 µM | AC50 [16] 1.14 µM | EC50 [17] 0.404 µM | IC50 [20] 2.41 µM | IC50 [21] 0.128 µM | AC50 [24] 0.355 µM | AC50 [25] 1.21 µM
inactive: EC50 [18] > 160 µM | IC50 [19] > 80 µM | EC50 [22] > 160 µM | EC50 [23] > 29.9 µM | EC50 [26] > 180 µM

O=C(Cn1cnc2ccccc2c1=O)Nc1ccc(S(=O)(=O)N2CCOCC2)cc1
inactive: IC50 [27] > 109 µM | IC50 [28] > 83.3 µM

COc1cc(C(=O)NC2CC3CCCC(C2)N3CC(=O)Nc2ccccc2Cl)cc(OC)c1OC (configuration not stated)
inactive: IC50 [29] > 79 µM and 60.1 µM | IC50 [30] > 79 µM

Cc1c(C(=O)NCc2cccc(C(F)(F)F)c2)sc(=O)n1Cc1ccc(C(=O)N(C)C)cc1
inactive: AC50 [31] > 52 µM | AC50 [32] > 52 µM
